The values that follow come from patent US4005076A, “Hydrazones of 3-formylrifamycin SV” (Gruppo Lepetit S.p.A., priority 1971, dated 1977).

Molecules are shown by their SMILES. Converted amounts (≈) assume the structure as drawn. Where only a bound is given, the exact number is not on record here.

This assay deals with Staphylococcus aureus strain which is resistant to rifampicin (Staph. aureus Tour). Nature of the assay: in vitro minimal inhibitory concentration against rifampicin-resistant Staphylococcus aureus strain. Format: cell-based. To be noted: Staphylococcus aureus, read-out: Minimal inhibitory concentration. The protocol: In particular, compounds illustrative of the invention at concentrations of about 10 to 20 μg/ml or less inhibit the growth of a Staph. aureus Tour strain resistant to rifampicin.
One of the most important characteristics of the new hydrazones is their activity against rifampicin-resistant Staphylococcus aureus strains. Rifampicin, that is 3-(4-methyl-1-piperazinyl)iminomethylrifamycin SV, disclosed in U.S. Pat. No. 3,342,810, is the most known and widely used rifamycin derivative in therapeutic practice.
The data of the new compounds are compared with those of representative hydrazones disclosed in U.S. Pat. No. 3,342,810.

`COC1C=COC2(C)Oc3c(C)c(O)c4c(O)c(c(C=NNC5CCCC5)c(O)c4c3C2=O)NC(=O)C(C)=CC=CC(C)C(O)C(C)C(O)C(C)C(OC(C)=O)C1C` (centres unmarked) [Example 1]: the MIC stood at 20 µg/mL (≈ 24.8 µM).

Turning to `COC1C=COC2(C)Oc3c(C)c(O)c4c(O)c(c(C=NNC5CCCCC5)c(O)c4c3C2=O)NC(=O)C(C)=CC=CC(C)C(O)C(C)C(O)C(C)C(OC(C)=O)C1C` (centres unmarked) [Example 2], the MIC is 20 µg/mL (≈ 24.3 µM).

For the compound `CCCCCN(C)N=Cc1c2c(O)c3c(O)c(C)c4c(c3c1O)C(=O)C(C)(OC=CC(OC)C(C)C(OC(C)=O)C(C)C(O)C(C)C(O)C(C)C=CC=C(C)C(=O)N2)O4` (centres unmarked) [Example 3], the MIC amounted to 10 µg/mL (≈ 12.1 µM).

On to `COC1C=COC2(C)Oc3c(C)c(O)c4c(O)c(c(C=NNc5ccnc6c(C(F)(F)F)cccc56)c(O)c4c3C2=O)NC(=O)C(C)=CC=CC(C)C(O)C(C)C(O)C(C)C(OC(C)=O)C1C` (centres unmarked) [Example 22], for which the MIC came to 50 µg/mL (≈ 53.5 µM).

Regarding `COC1C=COC2(C)Oc3c(C)c(O)c4c(O)c(c(C=NNc5cc(-c6ccccc6)nc6cc(C(F)(F)F)ccc56)c(O)c4c3C2=O)NC(=O)C(C)=CC=CC(C)C(O)C(C)C(O)C(C)C(OC(C)=O)C1C` (centres unmarked) [Example 23], the MIC came to 20 µg/mL (≈ 19.8 µM).

Take `COC1C=COC2(C)Oc3c(C)c(O)c4c(O)c(c(C=NNc5cc(C)c6cccc(C)c6n5)c(O)c4c3C2=O)NC(=O)C(C)=CC=CC(C)C(O)C(C)C(O)C(C)C(OC(C)=O)C1C` (centres unmarked) [Example 25]: the MIC came to 20 µg/mL (≈ 22.3 µM).

With `COC1C=COC2(C)Oc3c(C)c(O)c4c(O)c(c(C=NNc5cccc(C)c5)c(O)c4c3C2=O)NC(=O)C(C)=CC=CC(C)C(O)C(C)C(O)C(C)C(OC(C)=O)C1C` (centres unmarked) [Example 26], the MIC worked out at 20 µg/mL (≈ 24.1 µM).

Regarding `COc1ccccc1NN=Cc1c2c(O)c3c(O)c(C)c4c(c3c1O)C(=O)C(C)(OC=CC(OC)C(C)C(OC(C)=O)C(C)C(O)C(C)C(O)C(C)C=CC=C(C)C(=O)N2)O4` (centres unmarked) [Example 33], the MIC was determined as 50 µg/mL (≈ 59.1 µM).

Take `COC1C=COC2(C)Oc3c(C)c(O)c4c(O)c(c(C=NNCCOc5c(Cl)cc(N)cc5Cl)c(O)c4c3C2=O)NC(=O)C(C)=CC=CC(C)C(O)C(C)C(O)C(C)C(OC(C)=O)C1C` (centres unmarked) [Example 34]: the MIC was 50 µg/mL (≈ 53 µM).

In the case of `COC1C=COC2(C)Oc3c(C)c(O)c4c(O)c(c(C=NNc5ccccc5[N+](=O)[O-])c(O)c4c3C2=O)NC(=O)C(C)=CC=CC(C)C(O)C(C)C(O)C(C)C(OC(C)=O)C1C` (centres unmarked) [Example 35], the MIC turned out to be 20 µg/mL (≈ 23.2 µM).

As for `COC1C=COC2(C)Oc3c(C)c(O)c4c(O)c(c(C=NNc5cccc([N+](=O)[O-])c5)c(O)c4c3C2=O)NC(=O)C(C)=CC=CC(C)C(O)C(C)C(O)C(C)C(OC(C)=O)C1C` (centres unmarked) [Example 36], the MIC amounted to 50 µg/mL (≈ 58.1 µM).

With `COC1C=COC2(C)Oc3c(C)c(O)c4c(O)c(c(C=NNc5ccc(F)cc5)c(O)c4c3C2=O)NC(=O)C(C)=CC=CC(C)C(O)C(C)C(O)C(C)C(OC(C)=O)C1C` (centres unmarked) [Example 37], the MIC is 50 µg/mL (≈ 60 µM).

In the case of `COC1C=COC2(C)Oc3c(C)c(O)c4c(O)c(c(C=NNc5ccccc5C)c(O)c4c3C2=O)NC(=O)C(C)=CC=CC(C)C(O)C(C)C(O)C(C)C(OC(C)=O)C1C` (centres unmarked) [Example 38], the MIC was 20 µg/mL (≈ 24.1 µM).

As for `COC1C=COC2(C)Oc3c(C)c(O)c4c(O)c(c(C=NNc5c(Cl)cc(Cl)cc5Cl)c(O)c4c3C2=O)NC(=O)C(C)=CC=CC(C)C(O)C(C)C(O)C(C)C(OC(C)=O)C1C` (centres unmarked) [Example 39], the MIC came to 5 µg/mL (≈ 5.44 µM).

For the compound `COC1C=COC2(C)Oc3c(C)c(O)c4c(O)c(c(C=NNc5c(C)cc(C(C)(C)C)cc5C)c(O)c4c3C2=O)NC(=O)C(C)=CC=CC(C)C(O)C(C)C(O)C(C)C(OC(C)=O)C1C` (centres unmarked) [Example 41], the MIC worked out at 20 µg/mL (≈ 22.2 µM).

Regarding `COC1C=COC2(C)Oc3c(C)c(O)c4c(O)c(c(C=NN(C)Cc5ccc(-c6ccccc6)cc5)c(O)c4c3C2=O)NC(=O)C(C)=CC=CC(C)C(O)C(C)C(O)C(C)C(OC(C)=O)C1C` (centres unmarked) [Example 42], the MIC was 5 µg/mL (≈ 5.43 µM).

`COC1C=COC2(C)Oc3c(C)c(O)c4c(O)c(c(C=NNc5cccc(C(F)(F)F)c5)c(O)c4c3C2=O)NC(=O)C(C)=CC=CC(C)C(O)C(C)C(O)C(C)C(OC(C)=O)C1C` (centres unmarked) [Example 43, 3-Formylrifamycin SV: hydrazone of ((3-trifluoromethyl)-phenyl) hydrazine]: the MIC was determined as 10 µg/mL (≈ 11.3 µM).

Take `CCCCCN(CCCCC)N=Cc1c2c(O)c3c(O)c(C)c4c(c3c1O)C(=O)C(C)(OC=CC(OC)C(C)C(OC(C)=O)C(C)C(O)C(C)C(O)C(C)C=CC=C(C)C(=O)N2)O4` (centres unmarked) [Example 46]: the MIC came out at 1 µg/mL (≈ 1.14 µM).

For the compound `COC1C=COC2(C)Oc3c(C)c(O)c4c(O)c(c(C=NNC56CC7CC(CC(C7)C5)C6)c(O)c4c3C2=O)NC(=O)C(C)=CC=CC(C)C(O)C(C)C(O)C(C)C(OC(C)=O)C1C` (centres unmarked) [Example 47], the MIC is 5 µg/mL (≈ 5.72 µM).

For the compound `CCN(CC)N=Cc1c2c(O)c3c(O)c(C)c4c(c3c1O)C(=O)C(C)(OC=CC(OC)C(C)C(OC(C)=O)C(C)C(O)C(C)C(O)C(C)C=CC=C(C)C(=O)N2)O4` (centres unmarked) [N,N-Diethylhydrazone of 3-formylrifamycin SV], the MIC was over 100 µg/mL.

As to `CNN=Cc1c2c(O)c3c(O)c(C)c4c(c3c1O)C(=O)C(C)(OC=CC(OC)C(C)C(OC(C)=O)C(C)C(O)C(C)C(O)C(C)C=CC=C(C)C(=O)N2)O4` (centres unmarked) [N-Methylhydrazone of 3-formylrifamycin SV], the MIC was over 100 µg/mL.

For `COC1C=COC2(C)Oc3c(C)c(O)c4c(O)c(c(C=NNc5ccccc5)c(O)c4c3C2=O)NC(=O)C(C)=CC=CC(C)C(O)C(C)C(O)C(C)C(OC(C)=O)C1C` (centres unmarked) [Phenylhydrazone of 3-formylrifamycin SV], the MIC came out at 100 µg/mL (≈ 123 µM).

In the case of `COC1C=COC2(C)Oc3c(C)c(O)c4c(O)c(c(C=NNc5ccc(C(=O)O)cc5)c(O)c4c3C2=O)NC(=O)C(C)=CC=CC(C)C(O)C(C)C(O)C(C)C(OC(C)=O)C1C` (centres unmarked) [p-Carboxyphenylhydrazone of 3-formylrifamycin SV], the MIC is over 100 µg/mL.
